Results as given in ChEMBL document CHEMBL3045242, “Synthesis and Insect Growth Regulatory Activity of 1,5-Disubstituted Imidazoles with Non-terpene Chains” (Agric Biol Chem, 1991).
Active and inactive are the calls of the source. The calls are words filed in the database; no cut-off is given here.

Key:
Bombyx mori [1] = experiment: Juvenile hormone like activity in fourth-instar larvae of Bombyx mori C146 x N137 assessed as induction of precocious metamorphosis applied topically; type: functional
Bombyx mori [2] = experiment: Juvenile hormone like activity in fourth-instar larvae of Bombyx mori C146 x N137 assessed as induction of precocious metamorphosis at > 40 ug/larvae applied topically; type: functional
Bombyx mori [3] = experiment: Juvenile hormone like activity in fourth-instar larvae of Bombyx mori C137 x N137 assessed as induction of precocious metamorphosis applied topically; type: functional
Bombyx mori [4] = experiment: Juvenile hormone like activity in fourth-instar larvae of Bombyx mori C137 x N137 assessed as induction of precocious metamorphosis at > 40 ug/larvae applied topically; type: functional
Bombyx mori [5] = experiment: Juvenile hormone like activity in fourth-instar larvae of Bombyx mori assessed as induction of precocious metamorphosis at 40 ug/larvae applied topically in presence of 0.5 ug of methoprene; type: functional
Bombyx mori [6] = experiment: Juvenile hormone like activity in fourth-instar larvae of Bombyx mori assessed as induction of precocious metamorphosis at 40 ug/larvae applied topically; type: functional
Bombyx mori [7] = experiment: Juvenile hormone like activity in fourth-instar larvae of Bombyx mori assessed as induction of precocious metamorphosis at 40 ug/larvae applied topically in presence of 0.1 ug of methoprene; type: functional
Bombyx mori [8] = experiment: Juvenile hormone like activity in fourth-instar larvae of Bombyx mori assessed as induction of precocious metamorphosis at 40 ug/larvae applied topically in presence of 1 ug of methoprene; type: functional
Bombyx mori [9] = experiment: Toxicity in third-instar larvae of Bombyx mori at 160 ug applied topically; type: organism-based; conditions: in vivo, topical_or_ocular
Bombyx mori [10] = experiment: Juvenile hormone like activity in third-instar larvae of Bombyx mori assessed as spun cocoons at fifth-instar at 5 to 160 ug applied topically; type: functional, organism-based
Bombyx mori [11] = experiment: Juvenile hormone like activity in third-instar larvae of Bombyx mori assessed as spun cocoons at fourth-instar at 5 to 160 ug applied topically; type: functional, organism-based
Bombyx mori [12] = experiment: Juvenile hormone like activity in fourth-instar larvae of Bombyx mori assessed as induction of precocious metamorphosis at 1 ug applied topically; type: functional
Bombyx mori [13] = experiment: Juvenile hormone like activity in fourth-instar larvae of Bombyx mori C137 x N137 assessed as induction of precocious metamorphosis at > 60 ug/larvae applied topically; type: functional

SMILES	ED50 (Bombyx mori [1])	Activity (Bombyx mori [2])	ED50 (Bombyx mori [3])	also measured
CCCCCCCCOc1cccc(-c2cncn2C(C)C)c1	>40 µg	25%		
c1ccc(COc2cccc(-c3cncn3Cc3ccccc3)c2)cc1			40 µg	Activity (Bombyx mori [4]): 0%
CC(C)n1cncc1-c1cccc(Oc2ccccc2)c1	53.3 µg		21.6 µg	
CC(C)n1cncc1-c1cccc(OCc2ccccc2Cl)c1	>40 µg	0%		
CCCCCCOc1cccc(-c2cncn2C(C)C)c1	>40 µg	35%		
CCn1cncc1-c1cccc(OCc2ccccc2)c1			30.2 µg	
CC(C)n1cncc1-c1cccc(OCc2ccc(F)cc2)c1	>40 µg			
CC(Oc1cccc(-c2cncn2C(C)C)c1)c1ccccc1 (stereo unspecified)	>40 µg	0%		
CC(C)n1cncc1-c1cccc(OCCc2ccccc2)c1	>40 µg	20%		
CC(C)n1cncc1-c1ccccc1OCc1ccccc1			40 µg	Activity (Bombyx mori [4]): 0%
COc1cccc(COc2cccc(-c3cncn3C(C)C)c2)c1	>40 µg	25%		
CC(C)n1cncc1-c1cccc(OCc2ccccc2)c1	13.2 µg		0.9 µg	Activity (Bombyx mori [5]): 30%; Activity (Bombyx mori [6]): 100%; Activity (Bombyx mori [7]): 70%; Activity (Bombyx mori [8]): 0%; Activity (Bombyx mori [9]): Toxic; Activity (Bombyx mori [10]): Active; Activity (Bombyx mori [11]): Active
CCCn1cncc1-c1cccc(OCc2ccccc2)c1			21.1 µg	
COc1cccc(-c2cncn2C(C)C)c1	>40 µg	0%		
COC(C)(C)CCC[C@H](C)C/C=C/C(C)=C/C(=O)OC(C)C [METHOPRENE]				Activity (Bombyx mori [12]): 0%
CC(C)=CCC/C(C)=C/COc1cccc(-c2cncn2C(C)C)c1	>40 µg	0%		
CC(C)COc1cccc(-c2cncn2C(C)C)c1	>40 µg	35%		
CC(C)=CCC/C(C)=C/COc1cccc(-c2cncn2CC(C)C)c1			>40 µg	Activity (Bombyx mori [4]): 0%
CC(C)Cn1cncc1-c1cccc(Oc2ccccc2)c1			14.7 µg	Activity (Bombyx mori [10]): Active; Activity (Bombyx mori [11]): Active
CC(C)n1cncc1-c1ccc(OCc2ccccc2)cc1			40 µg	Activity (Bombyx mori [4]): 30%
CC(C)n1cncc1-c1cccc(OCc2ccc(Cl)cc2)c1	>40 µg	20%		
Cn1cncc1-c1cccc(OCc2ccccc2)c1			60 µg	Activity (Bombyx mori [13]): 0%
CC(C)Cn1cncc1-c1cccc(OCc2ccccc2)c1			28 µg	
CC(C)Cn1cncc1-c1ccc(Oc2ccccc2)cc1			55.5 µg	Activity (Bombyx mori [9]): Toxic
COc1ccc(COc2cccc(-c3cncn3C(C)C)c2)cc1	>40 µg	15%		
CC(C)n1cncc1-c1cccc(OCc2cccc(Cl)c2)c1	>40 µg	5%		
CCCCn1cncc1-c1cccc(OCc2ccccc2)c1			40 µg	Activity (Bombyx mori [4]): 0%
CC(C)n1cncc1-c1cccc(O)c1			>40 µg	Activity (Bombyx mori [4]): 0%
CC(C)(C)Cn1cncc1-c1cccc(OCc2ccccc2)c1			40 µg	Activity (Bombyx mori [4]): 0%
